The values that follow come from patent publication US20230029194A1, “MACROCYLIC SULFONYL DERIVATIVES MCL-1 INHIBITORS” (Janssen Pharmaceutica NV, priority 2019, published 2023).

Like-named read-outs stand apart in the source and are kept apart here.

The target in assay [1] is Myeloid Cell Leukemia 1 (Mcl-1) (Homo sapiens, UniProt Q07820). Briefly: Terbium labeled Mcl-1 HTRF binding assay utilizing the Cy5-labeled BIM BH3 peptide. The protocol: Terbium labeled Myeloid Cell Leukemia 1(Mcl-1) homogeneous time-resolved fluorescence (HTRF) binding assay utilizing the BIM BH3 peptide (H2N—(C/Cy5Mal) WIAQELRRIGDEFN-OH) as the binding partner for Mcl 1.
Chain of Myeloid Cell Leukemia 1 (Mcl-1) (Q07820 whole entry, the tested form may be a part): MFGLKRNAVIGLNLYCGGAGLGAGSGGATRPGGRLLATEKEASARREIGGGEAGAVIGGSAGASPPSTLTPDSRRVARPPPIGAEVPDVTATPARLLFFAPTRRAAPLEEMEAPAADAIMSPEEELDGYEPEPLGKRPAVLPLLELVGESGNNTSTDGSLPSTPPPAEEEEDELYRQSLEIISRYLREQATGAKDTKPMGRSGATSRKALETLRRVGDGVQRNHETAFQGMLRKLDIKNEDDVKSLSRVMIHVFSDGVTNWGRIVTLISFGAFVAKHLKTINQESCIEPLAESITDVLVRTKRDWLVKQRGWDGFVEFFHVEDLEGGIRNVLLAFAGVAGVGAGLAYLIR
This assay evaluated inhibition of the BH3 domain: Mcl-1 interaction by measuring the displacement of Cy5-labeled BIM BH3 peptide (H2N—(C/Cy5Mal) WIAQELRRIGDEFN-OH) in the HTRF assay format.
The following assay and stock buffers were prepared for use in the assay: (a) Stock buffer: 10 mM Tris—HCl, pH=7.5+150 mM NaCl, filtered, sterilized, and stored at 4° C.; and (b) 1X assay buffer, where the following ingredients were added fresh to stock buffer: 2 mM dithiothreitol (DTT), 0.0025% Tween-20, 0.1 mg/mL bovine serum albumin (BSA). The 1X Tb—Mcl-1+Cy5 Bim peptide solution was prepared by diluting the protein stock solution using the 1X assay buffer (b) to 25 pM Tb—Mcl-1 and 8 nM Cy5 Bim peptide.
Using the Acoustic ECHO, 100 nL of 100x test compound(s) were dispensed into individual wells of a white 384-well Perkin Elmer Proxiplate, for a final compound concentration of 1x and final DMSO concentration of 1%. Inhibitor control and neutral control (NC, 100 nL of 100% DMSO) were stamped into columns 23 and 24 of assay plate, respectively. Into each well of the plate was then dispensed 10 μL of the 1X Tb—Mcl-1+Cy5 Bim peptide solution. The plate was centrifuged with a cover plate at 1000 rpm for 1 minute, then incubated for 60 minutes at room temperature with plates covered. The TR-FRET signal was read on an BMG PHERAStar FSX MicroPlate Reader at room temperature using the HTRF optic module (HTRF: excitation: 337 nm, light source: laser, emission A: 665 nm, emission B: 620 nm, integration start: 60 μs, integration time: 400 μs).
The BMG PHERAStar FSX MicroPlate Reader was used to measure fluorescence intensity at two emission wavelengths—665nm and 620 nm—and report relative fluorescence units (RFU) for both emissions, as well as a ratio of the emissions (665 nm/620 nm)*10,000. The RFU values were normalized to percent inhibition as follows:
% inhibition=(((NC−IC)−(compound−IC))/(NC−IC))*100
where IC (inhibitor control, low signal)=mean signal of 1X Tb—MCl-1+Cy5 Bim peptide+inhibitor control or 100% inhibition of Mcl-1; NC (neutral control, high signal)=mean signal 1X Tb—MCl-1+Cy5 Bim peptide with DMSO only or 0% inhibition An 11-point dose response curve was generated to determine IC50 values (using GenData) based on the following equation:
Y=Bottom+(Top−Bottom)/(1+10((logIC50−X)*HillSlope))
where Y=% inhibition in the presence of X inhibitor concentration; Top=100% inhibition derived from the IC (mean signal of Mcl-1+inhibitor control); Bottom=0% inhibition derived from the NC (mean signal of Mcl-1+DMSO); Hillslope=Hill coefficient; and IC50=concentration of compound with 50% inhibition in relation to top/neutral control (NC).
In this assay [L]=8 nM and Kd=10 nM

A further assay relates to MOLP8 cells. Briefly: MOLP8 CellEvent Caspase-3/7 Green live-cell IncuCyte apoptosis assay. Type of assay: cell-based, human. Particulars: averaged, number of independent runs in brackets. The protocol: (§1) MCL-1 is a regulator of apoptosis and is highly over-expressed in tumor cells that escape cell death. The assay evaluates the cellular potency of small-molecule compounds targeting regulators of the apoptosis pathway, primarily MCL-1, Bfl-1, Bcl-2, and other proteins of the Bcl-2 family. Protein-protein inhibitors disrupting the interaction of anti-apoptotic regulators with BH3-domain proteins initiate apoptosis.
Activation of the apoptotic pathway was measured using the CellEvent™ Caspase-3/7 Green ReadyProbes™ Reagent (Thermo Fisher C10423, C10723). This assay produces a green fluorescent stain in cells that enter the apoptosis pathway. CellEvent® Caspase-3/7 Green reagent is a four amino acid peptide (DEVD) conjugated to a nucleic acid-binding dye that is non-fluorescent when not bound to DNA. The CellEvent® Caspase-3/7 Green reagent is intrinsically non-fluorescent, as the DEVD peptide inhibits binding of the dye to DNA. Upon activation of caspase-3/7 in apoptotic cells, the DEVD peptide is cleaved and the free dye can bind DNA, generating a bright green fluorescence. The activation of Caspase-3 and Caspase-7 is downstream of inhibition of MCL-1 or other apoptosis inhibiting proteins in cell lines that are dependent on them.
The live-cell readout on the IncuCyte permits tracking over time of the Caspase activation. […] The IncuCyte readout also allows one to normalize for cell number, as the suspension cells are hard to distribute evenly.
Signals were measured every 2 h for a duration of 22 h. The ratio of the Caspase mask to the Confluence mask, per image, as raw data, was calculated and the kinetic trace for every well was exported to Genedata Screener for analysis.
In Genedata Screener values for 6 h, 12 h, and 22 h from the kinetic traces were extracted. The values were normalized against negative controls (untreated cells). A standard dose-response analysis was performed on the normalized data.
The following data was reported at each of the following three aforementioned time points: (a) The dose-response curve, (b) The qAC50 and qAC50 Mode, and (c) Max Activity.
Cells were maintained in culture medium containing 10% Heat Inactivated (HI) FBS, 2 mM L-Glutamine and 50 μg/mL Gentamycin phenol red free RPMI-1640. Cells were split at 0.4 million/mL twice a week.
On Day 1, plates containing individual wells with test compounds at 10 mM concentration, 150 nL per well. The final concentrations range from […] to 10 pM compound (and no compound control) and compounds were thawed at room temperature for 1 hour. 25 μl of prewarmed medium was added into each well by multidrop (column 1, 3-22, 24), followed by addition of DMSO control (0.6% DMSO) in column 2. The plate was sealed using Breathe-Easy®) sealing membrane and shaken for 30 min at room temperature to dissolve the test compound(s) in medium. The plate was then kept in the incubator for 1 hour at 37° C., 5% CO2.
MOLP8 cells in medium at 40000/25 μl (20000/50 μl final in assay) were prepared with CellEvent™ Caspase-3/7 Green Detection Reagent at 4 μM (2 μM final in assay). Once prepared, the cells were added to the test compound plate in an amount of 20000 and the plate was immediately placed in the IncuCyte and imaging started using following settings: 10X objective, 2 s exposure time in green channel, interval of 2 h, acquisition stopped after 22 h.
For analysis in IncuCyte, a Basic Analysis protocol was defined to calculate the “confluence” and “caspase” areas from the “Phase” and “green” images, respectively, as follows: (a) Confluence: Segmentation Adjustment 1, Hole Fill 0, Adjust Size −2, No filters (b) Caspase: Top-Hat segmentation, Radius 10, Threshold 0.3 GCU, Edge Split On with sensitivity 0, Hole Fill 0, Adjust Size 1, and filter on a minimum Area of 20 μm. The analyzer is trained on a sufficient number of positive and negative control wells, as well as compound treated wells, verifying that the “confluence” layer detects both live and dead (condensed) cells. […]

The subject of assay [2] is MOLP-8 human multiple myeloma cell line. Briefly: MOLP8 Caspase-Glo 3/7 luminescent assay. It is filed as cell-based. The conditions noted are these: MOLP8 cells, 2 hours incubation, 10% FBS assay media, 30 μM highest conc.; averaged over all runs on all batches.
Excerpt: as §1
The Caspase-Glo® 3/7 Assay is a luminescent assay that measures caspase-3 and -7 activities in purified enzyme preparations or cultures of adherent or suspension cells. The assay provides a proluminescent caspase-3/7 substrate, which contains the tetrapeptide sequence DEVD. This substrate is cleaved to release aminoluciferin, a substrate of luciferase used in the production of light. Addition of the single Caspase-Glo® 3/7 Reagent in an “add-mix-measure” format results in cell lysis, followed by caspase cleavage of the substrate and generation of a “glow-type” luminescent signal. This assay uses the MOLP-8 human multiple myeloma cell line, which is sensitive to MCL-1 inhibition.
Cell cultures were maintained between 0.2 and 2.0×10^6 cells/mL. The cells were harvested by collection in 50 mL conical tubes. The cells were then pelleted at 500 g for 5 mins before removing supernatant and resuspension in fresh pre-warmed culture medium. The cells were counted and diluted as needed.
The assay reagent was prepared by transferring the buffer solution to the substrate vial and mixing. The solution may be stored for up to 1 week at 4° C. with negligible loss of signal.
Compounds were delivered in assay-ready plates (Proxiplate) and stored at −20° C. Assays always include 1 reference compound plate containing reference compounds. The plates were spotted with 40 nL of compounds (0.5% DMSO final in cells; serial dilution; 30 μM highest conc. 1/3 dilution, 10 doses, duplicates). […] The plates were then sealed and measured after 30 minutes.
The activity of a test compound was calculated as percent change in apoptosis induction as follows: […]

[3] abbreviates: values obtained after recalibration of the equipment, averaged over several runs.
Where [4] appears, read: 6 h, read-out: MOLP8 Caspase 3/7 AC50 at 6 h.
[5] abbreviates: 12 h, read-out: MOLP8 Caspase 3/7 AC50 at 12 h.
Where [6] appears, read: 22 h, read-out: MOLP8 Caspase 3/7 AC50 at 22 h.
The mark [7] stands for this setting: Ki=IC50/(1+[L]/Kd), [L]=8 nM, Kd=10 nM, first table (before recalibration of the equipment).

With `Cc1c2c(nn1C)CS(=O)(=O)Cc1cc(n(C)n1)CSc1cc(c3ccccc3c1)OCCCc1c(C(=O)O)n(C)c3c-2c(Cl)ccc13` (single isomer, unassigned) [Compound 3], the Ki in assay [1] (setting [3]) stood at 0.04 nM. Further, the AC50 with MOLP8 cells (setting [4]) is 680 nM; in the assay with MOLP8 cells (setting [5]), 620 nM; in the assay on MOLP8 cells (setting [6]), 540 nM; in assay [2], 400 nM.

Consider `Cc1c2c(nn1C)CS(=O)(=O)Cc1cc(n(C)n1)CSc1cc(c3ccccc3c1)OCCCc1c(C(=O)O)n(C)c3c-2c(Cl)ccc13` (single isomer, unassigned) [Compound 4], for which the figures for the Ki in assay [1] (setting [7]) and in assay [1] (setting [3]) were 1.7 nM and 3 nM, respectively. Moreover, the AC50 in the assay on MOLP8 cells (setting [4]) came to 18600 nM; in the assay with MOLP8 cells (setting [5]) it was 20200 nM; with MOLP8 cells (setting [6]), 21600 nM; in assay [2], 14100 nM.

On to `Cc1c2c(nn1C)CN(C)Cc1cc(n(C)n1)CS(=O)(=O)c1cc(c3ccccc3c1)OCCCc1c(C(=O)O)n(C)c3c-2c(Cl)ccc13` (single isomer, unassigned) [Compound 2], for which the Ki amounted to 86.3 nM in assay [1] (setting [7]) and 153 nM in assay [1] (setting [3]). In addition, the AC50 with MOLP8 cells (setting [4]), with MOLP8 cells (setting [5]) and in the assay with MOLP8 cells (setting [6]) was greater than 30200 nM each time.

Consider `Cc1c2c(nn1C)CN(C)Cc1cc(n(C)n1)CS(=O)(=O)c1cc(c3ccccc3c1)OCCCc1c(C(=O)O)n(C)c3c-2c(Cl)ccc13` (single isomer, unassigned) [Compound 1], for which the Ki in assay [1] (setting [7]) is 0.62 nM; in assay [1] (setting [3]) it was 0.56 nM. Further, the AC50 in the assay on MOLP8 cells (setting [4]) was determined as 4470 nM; in the assay with MOLP8 cells (setting [5]), 5580 nM; in the assay with MOLP8 cells (setting [6]) it was 5750 nM; in assay [2], 3900 nM.
